Literature values, collected in patent US7833524B2 (priority 2005, dated 2010).

Target: LC/A (Clostridium botulinum, UniProt P0DPI0)
Sequence (P0DPI0 2-448 limits assumed): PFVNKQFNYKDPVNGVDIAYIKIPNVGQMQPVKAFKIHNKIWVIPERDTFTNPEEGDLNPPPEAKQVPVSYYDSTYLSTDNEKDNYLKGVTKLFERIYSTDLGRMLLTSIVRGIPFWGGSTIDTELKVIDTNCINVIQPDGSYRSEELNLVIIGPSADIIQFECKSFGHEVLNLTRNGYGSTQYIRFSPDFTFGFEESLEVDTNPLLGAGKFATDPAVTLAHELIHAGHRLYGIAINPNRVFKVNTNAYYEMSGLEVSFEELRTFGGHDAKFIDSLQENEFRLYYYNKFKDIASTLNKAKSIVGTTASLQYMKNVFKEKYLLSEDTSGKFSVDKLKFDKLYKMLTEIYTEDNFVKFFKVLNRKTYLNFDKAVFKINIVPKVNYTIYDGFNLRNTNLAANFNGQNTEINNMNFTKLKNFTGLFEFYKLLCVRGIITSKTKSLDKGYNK

Structure (SMILES) | Concentration range that inhibits LC/A
C[C@H](CS)C(=O)N1CCC[C@H]1C(=O)O [captopril] | mM concentrations
CCOC(=O)[C@H](CCc1ccccc1)N[C@@H](C)C(=O)N1CCC[C@H]1C(=O)O [enalapril] | mM concentrations
